“And” between values parts separate entries of the source, which are not always exact repeats. Equal values may be shown once. Toxic doses and inconclusive results are not listed.
System: L1210 leukemia ip in BDF1 mice, survival T/C
Experiment: NCI In Vivo Anticancer Drug Screen. Data for tumor model L1210 Leukemia (intraperitoneal) in B6D2F1 (BDF1) mice
Conditions: endpoint: mean survival time, higher = longer survival
In short: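 Each compound was tested against a transplantable tumor grown in mice. The endpoint was survival, with treated animals benchmarked against vehicle controls as a simple ratio.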

[1] = dose: 100.0 mg/kg/injection, schedule: Q04DX003 (ip), vehicle: Klucel (hydroxypropylcellulose) (HPC)
[2] = dose: 100.0 mg/kg/injection, schedule: Q04DX003 (ip), vehicle: saline with Tween-80
[3] = dose: 200.0 mg/kg/injection, schedule: Q04DX003 (ip), vehicle: Klucel (hydroxypropylcellulose) (HPC)
[4] = dose: 200.0 mg/kg/injection, schedule: Q04DX003 (ip), vehicle: saline with Tween-80
[5] = dose: 400.0 mg/kg/injection, schedule: Q04DX003 (ip), vehicle: Klucel (hydroxypropylcellulose) (HPC)
[6] = dose: 100.0 mg/kg/injection, schedule: Q01DX009 (ip), vehicle: saline
[7] = dose: 100.0 mg/kg/injection, schedule: Q01DX009 (ip), vehicle: saline with Tween-80

Cc1c(C(=O)O)c(C)c([N+](=O)[O-])c(C)c1[N+](=O)[O-]
T/C (dose: 50.0 mg/kg/injection, schedule: Q04DX003 (ip), vehicle: saline with Tween-80): 95 % of control | T/C [1]: 90 % of control | T/C [2]: 97 % of control | T/C [3]: 95 % of control | T/C [4]: 97 % of control | T/C [5]: 93 % of control

C=CCN(CC=C)c1nc(N(CC)CC)nc(N(CC)CC)n1
T/C (dose: 25.6 mg/kg/injection, schedule: Q04DX002 (ip), vehicle: saline with Tween-80): 91 % of control | T/C (dose: 64.0 mg/kg/injection, schedule: Q04DX002 (ip), vehicle: saline with Tween-80): 97 % of control | T/C (dose: 160.0 mg/kg/injection, schedule: Q04DX002 (ip), vehicle: saline with Tween-80): 102 % of control | T/C (dose: 400.0 mg/kg/injection, schedule: Q04DX002 (ip), vehicle: saline with Tween-80): 112 % of control

CN(N)C(=O)Nc1cccc(Cl)c1
T/C (dose: 75.0 mg/kg/injection, schedule: Q01DX001 (ip), vehicle: carboxymethylcellulose (CMC)): 102 % of control | T/C (dose: 150.0 mg/kg/injection, schedule: Q01DX001 (ip), vehicle: carboxymethylcellulose (CMC)): 107 % of control | T/C (dose: 300.0 mg/kg/injection, schedule: Q01DX001 (ip), vehicle: carboxymethylcellulose (CMC)): 107 % of control

NC(=S)N=Nc1c(O)n(C2OC(CO)C(O)C(O)C2O)c2ccccc12 (stereo not given)
T/C (dose: 50.0 mg/kg/injection, schedule: Q01DX005 (ip), vehicle: saline): 88 % of control | T/C (dose: 100.0 mg/kg/injection, schedule: Q01DX005 (ip), vehicle: saline): 94 % of control

O=NN(CCCl)C(=O)Nc1ccc(I)cc1
T/C (dose: 8.0 mg/kg/injection, schedule: Q01DX009 (ip), vehicle: carboxymethylcellulose (CMC)): 121 % of control | T/C (dose: 8.4 mg/kg/injection, schedule: Q01DX009 (ip), vehicle: carboxymethylcellulose (CMC)): 112 % of control | T/C (dose: 12.0 mg/kg/injection, schedule: Q01DX009 (ip), vehicle: carboxymethylcellulose (CMC)): 112 % of control | T/C (dose: 17.0 mg/kg/injection, schedule: Q01DX001 (ip), vehicle: carboxymethylcellulose (CMC)): 117 % of control | T/C (dose: 17.7 mg/kg/injection, schedule: Q01DX001 (ip), vehicle: carboxymethylcellulose (CMC)): 119 % of control | T/C (dose: 26.6 mg/kg/injection, schedule: Q01DX001 (ip), vehicle: carboxymethylcellulose (CMC)): 122 % of control | T/C (dose: 29.0 mg/kg/injection, schedule: Q01DX009 (ip), vehicle: carboxymethylcellulose (CMC)): 150 % of control and 154 % of control | T/C (dose: 44.0 mg/kg/injection, schedule: Q01DX009 (ip), vehicle: carboxymethylcellulose (CMC)): 124 % of control | T/C (dose: 60.0 mg/kg/injection, schedule: Q01DX001 (ip), vehicle: carboxymethylcellulose (CMC)): 119 % of control | T/C (dose: 66.0 mg/kg/injection, schedule: Q01DX009 (ip), vehicle: carboxymethylcellulose (CMC)): 121 % of control and 90 % of control | T/C (dose: 89.0 mg/kg/injection, schedule: Q01DX001 (ip), vehicle: carboxymethylcellulose (CMC)): 153 % of control | T/C (dose: 100.0 mg/kg/injection, schedule: Q01DX009 (ip), vehicle: carboxymethylcellulose (CMC)): 98 % of control | T/C (dose: 200.0 mg/kg/injection, schedule: Q01DX001 (ip), vehicle: carboxymethylcellulose (CMC)): 186 % of control

NC(CSCc1ccccc1)CSCc1ccccc1
T/C (dose: 25.0 mg/kg/injection, schedule: Q01DX009 (ip), vehicle: saline): 101 % of control | T/C (dose: 50.0 mg/kg/injection, schedule: Q01DX009 (ip), vehicle: saline): 100 % of control | T/C [6]: 105 % of control

COc1cc(-c2ccc(N=Nc3nc4nc(N)nc(O)c4[nH]3)c(OC)c2)ccc1N=Nc1nc2nc(N)nc(O)c2[nH]1
T/C [1]: 97 % of control | T/C [3]: 100 % of control | T/C [5]: 97 % of control

NS(=O)(=O)c1ccc(NC2OCC(O)C(O)C2O)cc1 (stereo not given)
T/C [2]: 98 % of control | T/C [4]: 100 % of control | T/C (dose: 400.0 mg/kg/injection, schedule: Q04DX003 (ip), vehicle: saline with Tween-80): 102 % of control

CC(C)CNc1ccc(S(=O)(=O)c2ccc(NCC(C)C)c([N+](=O)[O-])c2)cc1[N+](=O)[O-]
T/C (dose: 3.12 mg/kg/injection, schedule: Q01DX009 (ip), vehicle: DMSO): 92 % of control | T/C (dose: 6.25 mg/kg/injection, schedule: Q01DX009 (ip), vehicle: DMSO): 89 % of control | T/C (dose: 12.5 mg/kg/injection, schedule: Q01DX009 (ip), vehicle: DMSO): 105 % of control | T/C (dose: 25.0 mg/kg/injection, schedule: Q01DX005 (ip), vehicle: DMSO): 92 % of control | T/C (dose: 25.0 mg/kg/injection, schedule: Q01DX009 (ip), vehicle: DMSO): 88 % of control | T/C (dose: 50.0 mg/kg/injection, schedule: Q01DX005 (ip), vehicle: DMSO): 92 % of control | T/C (dose: 100.0 mg/kg/injection, schedule: Q01DX005 (ip), vehicle: DMSO): 90 % of control | T/C (dose: 100.0 mg/kg/injection, schedule: Q04DX002 (ip), vehicle: DMSO): 96 % of control | T/C (dose: 200.0 mg/kg/injection, schedule: Q04DX002 (ip), vehicle: DMSO): 111 % of control | T/C (dose: 400.0 mg/kg/injection, schedule: Q04DX002 (ip), vehicle: DMSO): 107 % of control

CCCCCCCCCC(=O)NN1CCOCC1
T/C [7]: 105 % of control | T/C (dose: 200.0 mg/kg/injection, schedule: Q01DX009 (ip), vehicle: saline with Tween-80): 89 % of control | T/C (dose: 400.0 mg/kg/injection, schedule: Q01DX009 (ip), vehicle: saline with Tween-80): 89 % of control

CN(C)NC(=O)CC(N)C(=O)O (stereo not given)
T/C [6]: 97 % of control | T/C (dose: 200.0 mg/kg/injection, schedule: Q01DX009 (ip), vehicle: saline): 114 % of control | T/C (dose: 400.0 mg/kg/injection, schedule: Q01DX009 (ip), vehicle: saline): 100 % of control

O=C1Nc2ccccc2C1=Nc1ccc(F)cc1
T/C (dose: 100.0 mg/kg/injection, schedule: Q01DX001 (ip), vehicle: saline): 96 % of control | T/C (dose: 200.0 mg/kg/injection, schedule: Q01DX001 (ip), vehicle: saline): 92 % of control | T/C (dose: 400.0 mg/kg/injection, schedule: Q01DX001 (ip), vehicle: saline): 94 % of control

O=C1C=CC(=O)N1c1ccc(Br)cc1Cl
T/C (dose: 0.78 mg/kg/injection, schedule: Q04DX003 (ip), vehicle: saline): 91 % of control | T/C (dose: 1.0 mg/kg/injection, schedule: Q01DX009 (ip), vehicle: saline): 101 % of control | T/C (dose: 1.56 mg/kg/injection, schedule: Q04DX003 (ip), vehicle: saline): 93 % of control | T/C (dose: 2.0 mg/kg/injection, schedule: Q01DX009 (ip), vehicle: saline): 110 % of control | T/C (dose: 3.13 mg/kg/injection, schedule: Q04DX003 (ip), vehicle: saline): 106 % of control | T/C (dose: 4.0 mg/kg/injection, schedule: Q01DX009 (ip), vehicle: saline): 89 % of control | T/C (dose: 25.0 mg/kg/injection, schedule: Q04DX003 (ip), vehicle: saline with Tween-80): 100 % of control | T/C [1]: 93 % of control

N#CCCc1ccnc2ccccc12
T/C (dose: 100.0 mg/kg/injection, schedule: Q04DX003 (ip), vehicle: saline): 100 % of control | T/C (dose: 200.0 mg/kg/injection, schedule: Q04DX003 (ip), vehicle: saline): 102 % of control | T/C (dose: 400.0 mg/kg/injection, schedule: Q04DX003 (ip), vehicle: saline): 100 % of control

C=C1c2ccccc2N(C)C1(COc1ccc(Br)cc1)OC(=O)c1cccc(Cl)c1 (stereo not given)
T/C (dose: 100.0 mg/kg/injection, schedule: Q04DX002 (ip), vehicle: Klucel (hydroxypropylcellulose) (HPC)): 95 % of control | T/C (dose: 200.0 mg/kg/injection, schedule: Q04DX002 (ip), vehicle: Klucel (hydroxypropylcellulose) (HPC)): 95 % of control | T/C (dose: 400.0 mg/kg/injection, schedule: Q04DX002 (ip), vehicle: Klucel (hydroxypropylcellulose) (HPC)): 98 % of control

OCC1CC(n2cnc3c(Cl)ncnc32)C(O)C1O (stereo not given)
T/C (dose: 75.0 mg/kg/injection, schedule: Q01DX009 (ip), vehicle: saline with Tween-80): 107 % of control | T/C [7]: 101 % of control | T/C (dose: 150.0 mg/kg/injection, schedule: Q01DX009 (ip), vehicle: saline with Tween-80): 92 % of control

CC1(O)CC(=O)C2C3C=CC(C3)C21 (stereo not given)
T/C (dose: 75.0 mg/kg/injection, schedule: Q01DX001 (ip), vehicle: other): 98 % of control | T/C (dose: 150.0 mg/kg/injection, schedule: Q01DX001 (ip), vehicle: other): 104 % of control

Cc1ccc(NC(=O)N2CC2(C)C)cc1NC(=O)N1CC1(C)C
T/C [1]: 121 % of control | T/C [3]: 116 % of control | T/C (dose: 265.0 mg/kg/injection, schedule: Q04DX003 (ip), vehicle: Klucel (hydroxypropylcellulose) (HPC)): 120 % of control | T/C [5]: 111 % of control | T/C (dose: 600.0 mg/kg/injection, schedule: Q04DX003 (ip), vehicle: Klucel (hydroxypropylcellulose) (HPC)): 94 % of control
